The text below walks through data of patent US8188055B2, “Inactivators of O6-alkylguanine-DNA alkyltransferase” (The United States of America, as represented by the …, priority 2007, dated 2012).

Data set [1] concerns the target T1, human alkyltransferase (Homo sapiens, UniProt P16455).
T1 sequence (P16455 1-207): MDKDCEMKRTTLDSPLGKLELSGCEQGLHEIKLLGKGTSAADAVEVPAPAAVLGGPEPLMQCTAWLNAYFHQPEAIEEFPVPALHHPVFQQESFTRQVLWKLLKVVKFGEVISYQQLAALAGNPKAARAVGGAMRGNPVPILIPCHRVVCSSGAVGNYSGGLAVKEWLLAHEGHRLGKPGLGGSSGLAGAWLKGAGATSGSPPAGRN
Description: Inactivation of purified recombinant human alkyltransferase in vitro. Particulars: for inactivation of alkyltransferase compared with parent compound: comparison in words. Type of data set: biochemical. The protocol: ED50 values for the inactivation of purified human alkyltransferase in vitro are obtained as previously described (Nelson et al., J. Med. Chem. 2004, 47, 3887-3891 and Pegg et al., Biochem. Pharmacol. 1997, 53, 1559-1564). Purified recombinant human alkyltransferase is incubated with different concentrations of prodrugs in 0.5 mL of reaction buffer (50 mM Tris-HCl, pH 7.6, 0.1 mM EDTA, 5.0 mM dithiothreitol) containing 50 μg of hemocyanin or 10 μg calf thymus DNA for 30 min at 37° C.

In data set [2] the test system is human tumor cell extracts. Description: Release of folate from esters by human tumor cell extracts. Type of data set: in vitro ADME. The conditions noted are these: 200 μM ester, 2 mg lysate protein, pH 7.4, 37° C. The protocol:
Cells are trypsinized, washed with Hank's balanced salt solution, counted and pelleted. On ice, the cell pellets are resuspended in 50 mM sodium phosphate, 5 mM DTT, pH 7.4 at a concentration of 10^8 cells/ml and disrupted by sonication. The sonicated cells are centrifuged at 12,000×g for 10 min and the supernatant is removed. Complete mini protease inhibitor (Roche, Mannheim Germany) is added as directed by the supplier. Lysate total protein concentration is determined, and the lysates are frozen until used at −20° C. Reactions (600 μL), containing one of the ester substrates (200 μM) and 2 mg of lysate protein in 50 mM phosphate buffer (pH 7.4) are incubated at 37° C. At various times 50 μL, are removed for analysis by HPLC. The amount of folic acid liberated is used to determine the extent of ester hydrolysis.
The rate of release of folate is about 2.2% per day from 1; 3.2% per day from 2; and 0.9% per day from 3. […] The extent of conversion to folate by human tumor cell extracts can vary slightly according to the cell type with MCF-7 cells showing the highest rate of conversion.

In the next data set the test system is HT29 cells. The data set can be described thus: Sensitization of HT29 cells to killing by BCNU, colony-forming assay. The data set is classed as cell-based. Particulars: RPMI medium, drug 2 h prior to 40 μM BCNU for 2 h. The protocol:
KB, HT29 and A549 cells are grown in RPMI 1640 medium or in RPMI medium lacking folate in the presence of 10% fetal bovine serum. The effect of alkyltransferase inactivators on the sensitivity of cells to BCNU is determined using a colony-forming assay (Wei et al., J. Med. Chem. 2005, 48, 256-261; Nelson et al., J. Med. Chem. 2004, 47, 3887-3891; Chae et al., J. Med. Chem. 1994, 37, 342-347; and Dolan et al., Proc. Natl. Acad. Sci. U.S.A. 1990, 87, 5368-5372). Cells are plated at a density of 10^6 in 25 cm^2 flasks and 24 h later are incubated with different concentrations of potential inhibitors for 2-8 h as indicated before exposure to 20 or 40 μM BCNU for 2 h as previously described (Wei et al., J. Med. Chem. 2005, 48, 256-261; Nelson et al., J. Med. Chem. 2004, 47, 3887-3891). After 2 h, the medium is replaced with fresh medium containing the drug but no BCNU and the cells are left to grow for an additional 16-18 h. The cells are then replated at densities of 250-1000 cells per 25 cm^2 flask and grown for 8 days until discrete colonies have formed. The colonies are washed with 0.9% saline solution, stained with 0.5% crystal violet in ethanol, and counted.

A short description of data set [3]: Release of folate on incubation in neutral solution (ester stability). Type of data set: physicochemical. The conditions noted are these: incubated in neutral solution.
Data set [4] concerns the target T1, human alkyltransferase. The conditions noted are these: previously published, read-out: ED50 for inactivation of alkyltransferase, cited from earlier work.
[5] abbreviates: +DNA (10 μg calf thymus DNA), 30 min at 37° C, read-out: ED50 for inactivation of alkyltransferase.
Where [6] appears, read: absence of DNA, read-out: ED50 value in the absence of DNA.

Molecules are shown by their SMILES. Read-outs that look alike come from different tables or passages of the source.

As to `Nc1nc(OCc2ccccc2)c2ncn([C@H]3CC(OC(=O)CC[C@H](NC(=O)c4ccc(NCc5cnc6nc(N)[nH]c(=O)c6n5)cc4)C(=O)O)[C@@H](CO)O3)c2n1` (stereo partly shown) [Compound 1, O^6-Benzyl-3′-O-[γ-folyl]-2′-deoxyguanosine], the results for the EC50 at human alkyltransferase [1] (setting [5]) and at human alkyltransferase [1] (setting [6]) were 680 nM and 16 nM, respectively. Further, the “ED50 lower than O^6-benzylguanine” value at human alkyltransferase [1] (absence of DNA) is recorded as 10 times. Also, the “ED50 lower than the parent O^6-benzyl-2′-deoxyguanosine” value on human alkyltransferase [1] (absence of DNA) was 100 times. On human alkyltransferase [1], the “inactivation of alkyltransferase compared with parent compound” value is on record as “more active than O^6-benzyl-2′-deoxyguanosine itself”. Further, the “release of folate by extracts from human tumor cells” value (“release of folate by extracts” for short) in data set [2] is given as “able to release folate”. Also, in the data set on HT29 cells, the “sensitization of HT29 cells to killing by BCNU” value was “able to sensitize HT29 cells to killing by BCNU”. For the same compound, the “rate of release of folate” value in data set [3] is given as “about 2.2 % per day”.
As to `Nc1nc(OCc2ccccc2)c2ncn([C@H]3CC(O)[C@@H](COC(=O)CC[C@H](NC(=O)c4ccc(NCc5cnc6nc(N)[nH]c(=O)c6n5)cc4)C(=O)O)O3)c2n1` (stereo partly shown) [Compound 2, O^6-Benzyl-5′-O-[γ-folyl]-2′-deoxyguanosine], the EC50 at human alkyltransferase [1] (setting [5]) is 3060 ± 180 nM; at human alkyltransferase [1] (setting [6]), 640 nM. Besides, the “increase of ED50 when DNA is present” value at human alkyltransferase [1] (+DNA versus −DNA) came out at 5 fold. Moreover, the “inactivation of alkyltransferase compared with parent compound” value on human alkyltransferase [1] is given as “more active than O^6-benzyl-2′-deoxyguanosine itself”. Also, the “release of folate by extracts” value in data set [2] is on record as “able to release folate”. In the data set on HT29 cells, the “sensitization of HT29 cells to killing by BCNU” value is on record as “able to sensitize HT29 cells to killing by BCNU”. Also, the “rate of release of folate” value in data set [3] is around 3.2 % per day.
With `Nc1nc(OCc2ccc(COC(=O)CC[C@H](NC(=O)c3ccc(NCc4cnc5nc(N)[nH]c(=O)c5n4)cc3)C(=O)O)cc2)c2nc[nH]c2n1` [Compound 3, O^6-[4-[(γ-folyl)-oxymethyl]benzyl]guanine], the EC50 at human alkyltransferase [1] (setting [5]) is 240 nM; at human alkyltransferase [1] (−DNA (hemocyanin), 30 min at 37° C, read-out: ED50 for inactivation of alkyltransferase) it was 700 nM. Further, the “inactivation of alkyltransferase compared with parent compound” value at human alkyltransferase [1] was “slightly less effective than the free base parent”. For the same compound, the “release of folate by extracts” value in data set [2] was “able to release folate”. For the same compound, the “rate of release of folate” value in data set [3] was around 0.9 % per day.
Regarding `Nc1nc(OCc2ccccc2)c2ncn([C@H]3C[C@H](O)[C@@H](CO)O3)c2n1` [O^6-benzyl-2′-deoxyguanosine], the figures for the EC50 at human alkyltransferase [4] (+DNA) and at human alkyltransferase [4] (−DNA) were 40000 nM and 2000 nM, respectively.
